Data set [1] can be described thus: Refractive index nD20 (DIN 51423-2). Format: physicochemical. From the text:
(§1) Die nachfolgende Tabelle 3 gibt die Eigenschaften der wie oben beschriebenen Verbindungen wieder. Tabelle 3.

A short description of data set [2]: Dissolution (gelling) temperature of PVC in plasticizer, plate/plate rheometer, temperature at viscosity maximum. Type of data set: physicochemical. The conditions noted are these: 5 phr PVC, 95 phr plasticizer, 2 phr Ba-Zn stabilizer; 5 °C/min; mean of four measurements. From the text: Anwendungstechnische Prüfungen: II.a) Bestimmung der Lösetemperatur der offenbarungsgemäßen Weichmacher-Zusammensetzungen: Zur Bestimmung der Lösetemperatur der offenbarungsgemäßen Weichmacher-Zusammensetzungen wurden etwa 10 Gramm einer Mischungen nach folgender Rezeptur (siehe Tabelle 4) hergestellt. Die Mischung wird mit einer Pipette aufgerührt und dann sofort ca. 30 Tropfen der homogenen Mischung auf das Platte-Platte-Messsystem gegeben. Tabelle 4.
Die Viskositätsmessungen wurden mit einem beheizbaren Oszillations- und Rotations-Rheometer MCR 302 von Anton Paar in einem Rotationsversuch durchgeführt.
Die Messung erfolgte in zwei Rampen. Die erste Rampe für die Dauer von 120 s bei D=10 (1/s) und 30 °C dient zum Temperieren der Probe. Die zweite Rampe bei D=10 (1/s) und kontinuierlicher Temperatursteigerung von 5 °C min ist dann die eigentliche Messung. Der Abbruch erfolgte manuell, nachdem das Viskositätsmaximum überschritten war. Als Ergebnis der Messung wird die Temperatur ermittelt, bei der das Maximum der Viskosität erreicht ist. Diese Messungen werden insgesamt viermal durchgeführt und der arithmetische Mittelwert aller vier Messungen als das Endergebnis gewertet. Il.b) Herstellung und Prüfung von Weich-PVC-Folien hergestellt unter Einsatz erfindungsgemäßer Weichmacher-Zusammensetzungen

Data set [3] in a line: Acid number (DIN EN ISO 2114). Format: physicochemical.
Source text: as §1

Data set [4] in a line: Viscosity at 20 °C (DIN 51562-1). Format: physicochemical.
Source text: as §1

The nature of data set [5]: Water content (DIN 51777-1). Type of data set: physicochemical.
Source text: as §1

A short description of data set [6]: Density at 20 °C (DIN 51757 method 4). To be noted: DIN 51757 Verf. 4. Format: physicochemical.
Source text: as §1

Data set [7] is described as follows: HCl residual stability of plasticized PVC films at 200 °C. To be noted: PVC film, 60 phr plasticizer. From the text:
Rezeptur: siehe nachfolgende Tabelle 5. Tabelle 5.
150 g PVC (Homopolymeres Suspensions-PVC, Markenname Inovyn® 271 PC); 90 g Weichmacher-Zusammensetzung und 3 g Ba/Zn-Stabilisator, Markenname Baerostab® UBZ 760 XLP RF wurden mit einem Handmixer bei Raumtemperatur vermischt. Die Mischung wurde anschließend auf einem ölbeheizten Labormischwalzwerk (Fa. Collin, Automatikwalzwerk Typ W250M, Durchmesser: 252 mm, Breite: 450 mm) plastifiziert und zu einem Walzfell verarbeitet. Die Temperatur der beiden Walzen betrug jeweils 180 °C; die Drehzahlen lagen bei 15 Umdrehungen/min. (vordere Walze) und 12 Umdrehungen/min. (hintere Walze); die Walzzeit betrug 5 Minuten. Der Walzenspalt wurde auf 0,5 mm eingestellt. Man erhielt so ein Walzfell mit einer Dicke von 0,53 mm. Das abgekühlte Walzfell wurde anschließend bei einer Temperatur von 190 °C und einem Druck von 150 bar innerhalb von 180 s auf einer Presse vom Typ "Laborplattenpresse 400 P" der Fa. Collin zu einer Weich-PVC-Folie mit einer Dicke von 0,50 mm verpresst. Unter Beibehaltung des Pressdrucks wurde die Pressfolie innerhalb von 10 Minuten auf ca. 40 °C abgekühlt.
Die Bestimmung der HCl-Reststabilität erfolgt nach DIN EN 60811-405 (VDE 0473-811-405): Als Prüfgerät wird ein Metallblock-Thermostat von Liebisch Labortechnik bei einer Prüftemperatur von 200 °C verwendet. Es wird immer eine 3-fach Bestimmung vorgenommen. Ca. 50 mg der Walzfolien werden abgewogen, auf 3 cm Länge zugeschnitten und im unteren Teil des Glasröhrchens positioniert. Am oberen Ende des Glasröhrchens wird ein ca. 10 mm langer Indikatorpapierstreifen (Lackmusspapier) so positioniert, dass ca. 2 mm herausstehen. Die so präparierten Glasröhrchen werden in den Metallblock positioniert und die Zeit notiert, bis ein Farbumschlag in Richtung Rot auftritt. Aus den drei Messwerten der drei Proben wird der arithmetische Mittelwert gebildet.

Consider “4-Oxoheptandisäure-di-isotridecylester [Verbindung I.6]”, for which, in data set [1], the “Brechzahl, n^D20” value was 1,4605. In data set [2], the Lösetemperatur was found to be 162 °C. The Säurezahl in data set [3] is listed as 0,31 mg KOH/g. The “Viskosität, 20 °C” value in data set [4] turned out to be 101 mPa·s. Besides, the Wassergehalt in data set [5] was 0,016 Gew.-%. Further, the “Dichte, 20 °C” value in data set [6] was 0,9365 g/cm^3. The HCl-Reststabilität in data set [7] was 12 min.
As to `CCCCC(CC)COC(=O)CCC(=O)CCC(=O)OCC(CC)CCCC` (stereo not shown) [4-Oxoheptandisäure-di-(2-ethylhexylester), reference compound], the “Brechzahl, n^D20” value in data set [1] was 1,4534. Besides, the Lösetemperatur in data set [2] is 127 °C. For the same compound, the Säurezahl in data set [3] is 1,5 mg KOH/g. Besides, the “Viskosität, 20 °C” value in data set [4] is listed as 32 mPa·s. The Wassergehalt in data set [5] is given as 0,07 Gew.-%. Also, the “Dichte, 20 °C” value in data set [6] is on record as 0,9661 g/cm^3. In data set [7], the HCl-Reststabilität is on record as 11,1 min.
In the case of `CCCCCC(CCC)COC(=O)CCC(=O)CCC(=O)OCC(CCC)CCCCC` (stereo not shown) [Verbindung I.1, 4-Oxoheptandisäure-di-(2-propylheptylester)], in data set [1], the “Brechzahl, n^D20” value is 1,4553. Besides, the Lösetemperatur in data set [2] came out at 139 °C. Besides, in data set [3], the Säurezahl is reported as 1,1 mg KOH/g. Moreover, in data set [4], the “Viskosität, 20 °C” value was determined as 51 mPa·s. In addition, the Wassergehalt in data set [5] was 0,003 Gew.-%. In addition, the “Dichte, 20 °C” value in data set [6] was 0,9473 g/cm^3. In addition, in data set [7], the HCl-Reststabilität turned out to be 15 min.
Turning to `CC(C)CCCC(C)CCOC(=O)CCC(=O)CCC(=O)OCCC(C)CCCC(C)C` (stereo not shown) [Verbindung I.2, 4-Oxoheptandisäure-di-(3,7-dimethyloctylester)], in data set [1], the “Brechzahl, n^D20” value is recorded as 1,5160. Also, the Lösetemperatur in data set [2] came out at 147 °C. The Säurezahl in data set [3] is 0,26 mg KOH/g. In addition, in data set [4], the “Viskosität, 20 °C” value was 52 mPa·s. The Wassergehalt in data set [5] was 0,013 Gew.-%. The “Dichte, 20 °C” value in data set [6] is on record as 0,9456 g/cm^3. In addition, the HCl-Reststabilität in data set [7] is 13,4 min.

Values taken from patent EP4638411B1, “PLASTICIZER” (priority 2022, dated 2024).
